Experimental data: PubChem BioAssay (NCI)
Several values for one entry are separate records, joined by “and”; a condition that tells them apart may be missing. Equal entries are not always repeated.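 Cells were grown in 96-well plates and exposed to each compound for 48 hours at five concentrations; endpoints were interpolated linearly between bracketing concentrations, or set to the highest concentration if not reached. GI50 = concentration required for 50% inhibition of growth. TGI: total growth inhibition.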

Assays:
Assay in all cases: NCI tumour cell line growth inhibition, 48 h
COLO 205 colon = system: COLO 205 colon
A549 NSCLC = system: A549 NSCLC
OVCAR-8 ovarian = system: OVCAR-8 ovarian
UACC-257 melanoma = system: UACC-257 melanoma
MDA-MB-435 = system: MDA-MB-435
ACHN renal = system: ACHN renal
SF-539 CNS = system: SF-539 CNS
HOP-92 NSCLC = system: HOP-92 NSCLC

| SMILES | GI50 (COLO 205 colon) | TGI (COLO 205 colon) | GI50 (A549 NSCLC) | TGI (A549 NSCLC) | GI50 (OVCAR-8 ovarian) | TGI (OVCAR-8 ovarian) | GI50 (UACC-257 melanoma) | TGI (UACC-257 melanoma) | GI50 (MDA-MB-435) | TGI (MDA-MB-435) | GI50 (ACHN renal) | TGI (ACHN renal) | GI50 (SF-539 CNS) | TGI (SF-539 CNS) | GI50 (HOP-92 NSCLC) | TGI (HOP-92 NSCLC) |
| --- | --- | --- | --- | --- | --- | --- | --- | --- | --- | --- | --- | --- | --- | --- | --- | --- |
| O=c1oc2c(cc1-c1ccccc1)C(O)Oc1ccccc1-2 (stereo not drawn) | 7720 nM | 25.9 µM | 7.84 µM | 95.8 µM | 6.89 µM | > 100 µM | 12.4 µM | 35.4 µM | 1620 nM | > 100 µM | 20.4 µM | > 100 µM | 12400 nM | 98 µM |  |  |
| O=C(Nc1cc(C(F)(F)F)cc(C(F)(F)F)c1)Nc1ccc(OCc2nnc(-c3ccc(Cl)cc3)o2)c(F)c1 | 1640 nM | 3.15 µM | 1.97 µM | 9.44 µM | 1.6 µM | 5.73 µM | 1.62 µM | 5.01 µM | 2600 nM | 9.78 µM | 0.873 µM | 9.2 µM | 2830 nM | 8.47 µM | 1140 nM | 4.06 µM |
| COc1cc2oc(-c3cccc(C(=O)Nc4ccc(C)cc4)c3)cc(=O)c2c(OC)c1OC | 1050 nM | 2.6 µM | 3.86 µM | > 100 µM | 2.9 µM | > 100 µM | 1.92 µM | 4.5 µM | 2260 nM | 7.64 µM | 2.69 µM | > 100 µM | 2580 nM | 10.5 µM | 1550 nM | 5.46 µM |
| O=C1Nc2ccc(CN3CCOC3=O)cc2/C1=C/c1cc(CN2CCOCC2)c[nH]1 | 38600 nM | > 100 µM | 49.7 µM | > 100 µM | 33.7 µM | > 100 µM | 52 µM | > 100 µM | 18700 nM | > 100 µM | 56 µM | > 100 µM | 53900 nM | > 100 µM | 32000 nM | > 92.3 µM |
| CNC12C3C4C1C1C2C3C41C(=O)N[C@H](C(=O)N(C)[C@H](C[C@@H](OC(C)=O)c1nc(C(=O)N[C@@H](Cc2ccccc2)C[C@H](C)C(=O)OC)cs1)C(C)C)C1CC1 (stereo partly drawn) | 493 nM | 2.31 µM | 1.53 µM | > 15 µM | 0.523 µM | > 15 µM | 2.99 µM | > 15 µM | 46.7 nM | 0.32 µM | 0.901 µM | > 15 µM | 322 nM | 0.93 µM | 1800 nM | 8.93 µM |
| O=C(c1ccccc1)c1ccc(O)c2ncccc12 | 23900 nM | 95.7 µM | 9.02 µM | > 100 µM | 4.08 µM | 41 µM | 5.75 µM | > 100 µM | 6130 nM | 97.5 µM | 3.46 µM | 15.7 µM | 4660 nM | 21.3 µM | 2890 nM | 16.5 µM |
| CC(=O)N1N=C(c2ccc(Nc3nc(Nc4ccc(F)cc4)nc(Nc4ccc(Cl)cc4)n3)cc2)CC1c1ccc(N(C)C)cc1 (stereo not drawn) | 1810 nM | 5.9 µM | 4.27 µM | 43 µM | 3.75 µM | 23.4 µM | 7.67 µM | 26.1 µM | 5680 nM | 20.9 µM | 4.03 µM | > 58.4 µM | 15800 nM | > 63.9 µM | 2870 nM | 19.1 µM |
| C=C1[C@@H](O)C[C@H]2C(C)(C)C[C@H](Cl)C[C@]2(C)[C@H]1C[C@H](O)[C@H]1CC(=O)NC1=O | < 10 nM | 0.0564 µM | 0.0117 µM | 0.145 µM | 0.0155 µM | 0.163 µM | 0.0193 µM | 0.122 µM | 16 nM | 0.312 µM | 0.0166 µM | 0.176 µM | < 10.9 nM | 0.0597 µM | < 11.5 nM | 0.179 µM |
| COc1ccc(C2CC(c3cccc(OC)c3)=NN2C(=O)c2cc(OC)c(OC)c(OC)c2)cc1 (stereo not drawn) | 1190 nM | 5.53 µM | 2.25 µM | > 100 µM | 5.83 µM | > 100 µM | 83.8 µM | > 100 µM | 307 nM | 1.71 µM | 5.54 µM | > 100 µM | 1620 nM | 5.3 µM | 1040 nM | > 100 µM |
| Clc1ccc(-c2nc(C(Cl)Cl)nc3cc(-c4ccccc4)nn23)cc1 |  |  | 0.875 µM | 2.34 µM | 1.44 µM | > 50 µM |  |  | 1800 nM | > 50 µM |  |  | 2340 nM | > 50 µM | 1250 nM | > 50 µM |
| NC(=NCCO)c1ccc(N2CCCN(c3ccc(C(N)=NCCO)cc3)CC2)cc1 | > 100000 nM | > 100 µM | 98.3 µM | > 100 µM | > 100 µM | > 100 µM | > 100 µM | > 100 µM | > 100000 nM | > 100 µM | > 100 µM | > 100 µM |  |  |  |  |
| CNC(C)[C@H]1CCC2C3CCC4C[C@@H](N(C)C(=O)c5ccccc5)CC[C@]4(C)C3CC[C@@]21C (stereo partly drawn) | 1150 nM | 2.52 µM | 2.31 µM | 7.29 µM | 3.44 µM | 23.2 µM | 2.19 µM | 5.53 µM | 632 nM | 2.42 µM | 2.37 µM | 9.59 µM | 739 nM | 2.01 µM | 384 nM | 3.52 µM |
| COc1ccc(C2SCC(=O)N2NC(=O)C(O)c2ccccc2)cc1 (stereo not drawn) | > 100000 nM | > 100 µM | > 100 µM | > 100 µM | > 100 µM | > 100 µM | > 100 µM | > 100 µM | > 100000 nM | > 100 µM | > 100 µM | > 100 µM | > 100000 nM | > 100 µM | > 100000 nM | > 100 µM |
| Nc1cc(N)cc(Cc2ccccc2)c1 |  | > 100 µM |  | > 100 µM |  | > 100 µM |  | > 100 µM |  | > 100 µM |  | > 100 µM |  | > 100 µM |  | > 100 µM |
| Clc1ccc(N/N=C(\c2ccccc2)c2ccccn2)nc1 | 30.8 nM | 18.1 µM |  | > 100 µM and 15.9 µM | 0.276 µM |  | 0.154 µM | 12 µM and 20.7 µM | 420 nM | > 55.9 µM | 0.0619 µM | > 36.8 µM and 12.5 µM | 297 nM | 5.57 µM and 9.47 µM | 445 nM | > 66.2 µM and 10.2 µM |
